In test [1] the test system is EGFP. Nature of the test: RNAi-effect inhibitory ability, EGFP/DsRed cotransfection in Hela cells (Example 5). Format: cell-based. Particulars: crosslinking agent solution 4 μM reacted with siRNA 8 hours, no UV irradiation, 48 hours culture. The method, then:
(1) Reagents • Hela cells (American Type Culture Collection (ATCC, Rockville, Md.)) • DMEM culture medium (Dullbecco's modified Eagle culture medium, Nissui 2, manufactured by Nissui Pharmaceutical Co., Ltd.) • Opti-MEM culture medium (manufactured by GIBCO) • Trypsin solution (0.38 mg/ml EDTA aqueous solution containing 2.5 mg of trypsin, manufactured by GIBCO) • LipofectAMINE 2000 (manufactured by Invitrogen) • pEGFP-N1 vector solution
Hela cells (500 μl of the DMEM culture medium containing Hela cells and 10% of FBS) were spread on a 24-hole plate so as to obtain 3×10^4 cells/well. After 24 hours passed, the old culture medium was removed, and Hela cells were then washed with a PBS(−) solution. Subsequently, the PBS(−) solution was removed, and 500 μl of the DMEM culture medium containing 10% of FBS was added per one well. This was used as a transfection Hela cell plate.
As shown in the following Table 2, 0.2 μl of the crosslinking agent solution and 0.20 μl of the siRNA solution were mixed together, and the mixture thus obtained was still held for 8 hours under light shielding conditions. Subsequently, Nos. 2, 4, and 6 were irradiated with UV (350 nm) for 3 minutes using Rayonet Photochemical Reactor manufactured by Southern N. E. Ultraviolet Co. […]

Test [2] deals with EGFP. Nature of the test: Effectiveness versus bis-Bhc-CH3 and Bhc-diazo, EGFP/DsRed cotransfection in Hela cells (Example 7). Format: cell-based. The method, then:
As shown in the following Table 5, 0.2 μl of the crosslinking agent solution and 0.20 μl of the siRNA solution were mixed together, and the mixture thus obtained was still held for 8 hours under light shielding conditions. Subsequently, Nos. 2, 4, and 6 were irradiated with UV (350 nm) for 3 minutes using Rayonet Photochemical Reactor manufactured by Southern N. E. Ultraviolet Co.

The next test has as its system Lamin B1. Nature of the test: Light irradiation control of endogenous gene, Western blotting of Lamin B1 protein in Hela cells (Example 10). Format: cell-based. The method, then: (1) Reagents • Hela cells (American Type Culture Collection (ATCC, Rockville, Md.) • DMEM culture medium (Dullbecco's modified Eagle culture medium, Nissui 2, manufactured by Nissui Pharmaceutical Co., Ltd.) • Opti-MEM culture medium (manufactured by GIBCO) • Trypsin solution (0.38 mg/ml EDTA aqueous solution containing 2.5 mg of trypsin, manufactured by GIBCO) • LipofectAMINE 2000 (manufactured by Invitrogen) • siRNA solution
Hela cells (500 μl of DMEM containing Hela cells and 10% of FBS) were spread on a 24-hole plate so as to obtain 1×10^3 cells/well. After 24 hours passed, the old culture medium was removed, and Hela cells were then washed with a PBS(−) solution. Subsequently, the PBS(−) solution was removed, and 500 μl of DMEM containing 10% of FBS was added per one well. This was used as a transfection Hela cell plate.
Mixing between 4.6 μl of the crosslinking agent solution and 0.46 μl of the siRNA solution was performed, and the mixture thus obtained was still held for 8 hours under light shielding conditions.
After the culture was performed, by a Western blotting method, the amounts of a Lamin B1 protein of the individual samples were quantitatively measured. […]
In addition, from the results of the Western blotting, the amounts of the Lamin B1 protein of the samples were quantitatively measured. […]

The subject of test [3] is EGFP. Particulars: compound 3 4 μM.
Method: The crosslinking agent solution in an amount of 0.2 μl and the siRNA solution in an amount of 0.20 μl were mixed together, and the mixture thus formed was still held for 0, 1, 2, 4, 8, or 24 hours under light shielding conditions.
After the culture was performed, transmission images of cells, and fluorescent images of EGFP and DsRed were observed.
By using a Meta Morph Analysis software (manufactured by Meta Imaging Software), the total fluorescent areas of the respective EGFP and DsRed were measured, and the ratio of EGFP/DsRed was obtained.
The subject of test [4] is EGFP. Nature of the test: Influence of light irradiation and compound on RNAi, control siRNA (targeting luciferase), EGFP/DsRed in Hela cells (Example 9). It counts as cell-based. The protocol: The expression level obtained by transfection of siRNA which reacted with the compound of the present invention was low as that obtained by transfection of only EGFP. In order to investigate this reason, it was confirmed whether the transfection efficiency was degraded by the compound of the present invention or by the transfection itself of siRNA.
As shown in the following Table 8, 0.2 μl of the crosslinking agent solution and 0.20 μl of the siRNA solution or 0.20 μl of the control siRNA solution were mixed together, and the mixture thus obtained was still held for 8 hours under light shielding conditions.
(§1) To 9.2 μl of the Opti-MEM culture medium, 0.8 μl of LipofectAMINE 2000 was added, and the culture medium thus processed was still held for 10 minutes.
Next, the above culture medium and the transfecting sample obtained by the above ii) or the control sample were mixed together, and this mixture was still held for 20 minutes.
(§2) The mixture thus obtained was added to the transfection Hela cell plate prepared by the above (2) and was then cultured at 37° C. for 6 hours using a CO2 incubator (Automatic CO2 Incubators 5400, manufactured by NAPCO).
(§3) After the culture was performed, the culture medium was removed, and Hela cells were washed with a PBS(−) solution. Subsequently, the PBS(−) solution was removed, and 500 μl of the Opti-MEM culture medium was added per one well. […]

The test system of test [5] is EGFP. Nature of the test: Study in cell: local UV irradiation of transfected Hela cells, EGFP/DsRed (Example 8). Format: cell-based. The method, then:
Hela cells (500 μl of DMEM containing Hela cells and 10% of FBS) were spread on a 24-hole plate so as to obtain 5×10^3 cells/well. After 24 hours passed, the old culture medium was removed, and Hela cells were washed with a PBS(−) solution. Subsequently, the PBS(−) solution was removed, and 500 μl of DMEM containing 10% of FBS was added per one well. This was used as a transfection Hela cell plate.
as §1
Next, the above culture medium and the transfecting sample obtained by the above ii) were mixed together, and this mixture was still held for 20 minutes.
as §2, §3
In addition, the observation results of the fluorescence images of EGFP and DsRed obtained by using the compound 3 of the present invention are shown in FIG. 6.

Setting [6] is: Hela cells, regardless before and after UV irradiation, bis-Bhc-CH3 4 μM, Bhc-diazo 8 μM.

“Also recorded” adds a separate entry of the source.

As to `[N-]=[N+]=Cc1cc(=O)oc2cc(OC(=O)CCCC(=O)OCCOC(=O)CCCC(=O)Oc3cc4oc(=O)cc(C=[N+]=[N-])c4cc3Br)c(Br)cc12` [compound 2 of the present invention, Glutaric acid (6-bromo-4-diazomethyl-2-oxo-2H-chromen)-7-yl 2-[4-(6-bromo-4-diazomethyl-2-oxo-2H-chromen-7-yloxycarbonyl)butyryloxy]ethyl ester], the “inhibition of the RNAi effect of siRNA (relative EGFP expression level)” value with EGFP [1] is listed as “superior effect of inhibiting the RNAi effect”.

As to `[N-]=[N+]=Cc1cc(=O)oc2cc(O)c(Br)cc12` [Bhc-diazo, 6-bromo-7-hydroxy-4-methyldiazocumarine], in the test with EGFP [2], the “binding to / crosslinking of siRNA” value is listed as “could not crosslink two chains of siRNA”. Moreover, in the test with EGFP [2] (setting [6]), the “inhibition of the siRNA effect (relative EGFP expression level)” value is on record as “the siRNA effect could be hardlyinhibited”.

On to `Cc1cc(=O)oc2cc(OC(=O)CC(C)(C)CC(=O)OCCOC(=O)CC(C)(C)CC(=O)Oc3cc4oc(=O)cc(C)c4cc3Br)c(Br)cc12` [bis-Bhc-CH3, 3,3-dimethylglutaric acid (6-bromo-4-methyl-2-oxo-2H-chromen)-7-yl 2-[4-(6-bromo-4-methyl-2-oxo-2H-chromen-7-yloxycarbonyl)-3,3-dimethylbutyryloxy]ethyl ester], for which, in the test on EGFP [2], the “binding to / crosslinking of siRNA” value is listed as “could not be bound to siRNA”. Further, the “inhibition of the siRNA effect (relative EGFP expression level)” value with EGFP [2] (setting [6]) is recorded as “the siRNA effect could be hardlyinhibited”.

`CC(C)(CC(=O)OCCOC(=O)CC(C)(C)CC(=O)Oc1cc2oc(=O)cc(C=[N+]=[N-])c2cc1Br)CC(=O)Oc1cc2oc(=O)cc(C=[N+]=[N-])c2cc1Br` [compound 3 of the present invention, 3,3-dimethylglutaric acid (6-bromo-4-diazomethyl-2-oxo-2H-chromen)-7-yl 2-[4-(6-bromo-4-diazomethyl-2-oxo-2H-chromen-7-yloxycarbonyl)-3,3-dimethylbutyryloxy]ethyl ester]: the “restoration of the inhibited RNAi effect on Lamin B1 expression by UV irradiation” value with Lamin B1 (UV irradiation as in Example 8) is reported as “could be restored”. In addition, the “inhibition of the RNAi effect of siRNA on Lamin B1 expression” value in the test on Lamin B1 (compound 3 bound to siRNA, no UV) was “the RNAi effect of siRNA could be inhibited”. For the same molecule, in the test on EGFP [3] (reaction time short (0, 1, 2, 4 hours tested)), the “crosslinking of siRNA when the reaction time is short” value is “could not be sufficiently crosslinked”. The “reaction time at which the reaction between crosslinking agent and siRNA reached a plateau” value in the test on EGFP [3] (reaction times 0-24 hours, no significant difference between 8 and 24 hours) was “approximately 8 hours”. For the same molecule, the “inhibition of the siRNA effect (relative EGFP expression level)” value with EGFP [2] (Hela cells, 4 μM, UV irradiation not performed) is recorded as “could inhibit the siRNA effect”. Besides, the “effect of UV irradiation on the inhibition of the siRNA effect” value in the test on EGFP [2] (Hela cells, UV (350 nm) for 3 minutes) is “the inhibition was broken down by UV irradiation”. Further, the “EGFP expression rate with control siRNA crosslinked by the compound versus control siRNA only” value in the test with EGFP [4] is “approximately equivalent to each other”. Further, the “RNAi effect of siRNA at a portion not irradiated with UV” value in the test on EGFP [5] (Hela cells transfected with siRNA crosslinked by compound 3) is on record as “the RNAi effect of siRNA was inhibited”. Moreover, the “RNAi effect of siRNA at a portion irradiated with UV” value with EGFP [5] (Hela cells, UV (335 to 385 nm) for 1 second at the center of the well, 42 hours culture) was “the RNAi effect of siRNA was restored”. Besides, the “inhibition of the RNAi effect of siRNA (relative EGFP expression level)” value in the test with EGFP [1] is reported as “superior effect of inhibiting the RNAi effect; also recorded: most superior effect”.

Values taken from patent publication US8084625B2, “Crosslinking agent, crosslinking method, method of controlling gene expression, and method of examining gene function” (Wako Pure Chemical Industries, Ltd., priority 2005, dated 2011).
